Source: paper PMC7892824, “Eltrombopag directly inhibits BAX and prevents cell death” (Nature Communications, 2021)

What was measured:
BAX R134E = target: T1, BAX R134E (Homo sapiens, UniProt Q07812, R134E); test: 1H-15N HSQC NMR chemical shift perturbation; liposomal release inhibition; type: binding
T1 construct: full-length (1–192)

BAX = target: T2, BAX (Mus musculus, UniProt Q07813); test: CETSA, […] EO, TM lowered by […] °C; type: cell-based; conditions: read-out: CETSA, 10 μM EO, TM lowered by 9 °C
T2 construct: endogenous BAX in BAK KO mouse embryonic fibroblasts
T2 sequence (Q07813 whole entry): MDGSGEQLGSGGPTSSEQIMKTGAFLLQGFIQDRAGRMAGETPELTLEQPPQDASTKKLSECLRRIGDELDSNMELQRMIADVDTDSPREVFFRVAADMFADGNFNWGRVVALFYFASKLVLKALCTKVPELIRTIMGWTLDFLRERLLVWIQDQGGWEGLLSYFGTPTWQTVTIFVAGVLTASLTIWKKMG

T1 sequence (Q07812 whole entry R134E): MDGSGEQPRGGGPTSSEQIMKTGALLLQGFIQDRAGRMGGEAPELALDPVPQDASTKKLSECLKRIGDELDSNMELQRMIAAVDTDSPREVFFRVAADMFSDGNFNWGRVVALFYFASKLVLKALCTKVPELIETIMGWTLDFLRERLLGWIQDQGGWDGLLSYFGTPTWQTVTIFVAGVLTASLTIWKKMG

How did the “1H-15N HSQC NMR chemical shift perturbation; liposomal release inhibition” value (BAX R134E) turn out when `CC1=NN(c2ccc(C)c(C)c2)C(=O)/C1=N\Nc1cccc(-c2cccc(C(=O)O)c2)c1O` [compound 2, Eltrombopag] was run?
The value was “BAX R134E in the presence of EO exhibited clustering of CSPs to the trigger site, albeit with reduced CSPs”.

And the Tm decrease at 10 µM (BAX)?
Its Tm decrease at 10 µM is 9 °C.
